Measurements published in the NIST ThermoML archive (doi:10.1021/acs.jced.8b00438).
± gives the expanded uncertainty stated by the source.

Assay: xn = mol fraction of the nth substance listed
Conditions: 100 kPa, Liquid; for viscosity: Falling or rolling sphere viscometry; for mass density: Vibrating tube method

## CCCCCCCCCCCC [dodecane] + CCCCO
293.15 K, x1 = 0.1045
  viscosity: 2.478 ± 0.053 mPa·s
  mass density: 794.67 ± 0.81 kg/m3
293.15 K, x1 = 0.2008
  viscosity: 2.167 ± 0.046 mPa·s
  mass density: 784.43 ± 0.79 kg/m3
293.15 K, x1 = 0.3002
  viscosity: 1.935 ± 0.041 mPa·s
  mass density: 776.26 ± 0.79 kg/m3
293.15 K, x1 = 0.3985
  viscosity: 1.772 ± 0.038 mPa·s
  mass density: 769.8 ± 0.78 kg/m3
293.15 K, x1 = 0.4995
  viscosity: 1.64 ± 0.035 mPa·s
  mass density: 764.28 ± 0.77 kg/m3
293.15 K, x1 = 0.5978
  viscosity: 1.561 ± 0.033 mPa·s
  mass density: 759.94 ± 0.77 kg/m3
293.15 K, x1 = 0.7012
  viscosity: 1.494 ± 0.032 mPa·s
  mass density: 755.99 ± 0.77 kg/m3
293.15 K, x1 = 0.7671
  viscosity: 1.476 ± 0.031 mPa·s
  mass density: 754.1 ± 0.76 kg/m3
293.15 K, x1 = 0.8773
  viscosity: 1.458 ± 0.031 mPa·s
  mass density: 751.22 ± 0.76 kg/m3
293.15 K, x1 = 1
  viscosity: 1.491 ± 0.032 mPa·s
  mass density: 748.83 ± 0.76 kg/m3
298.15 K, x1 = 0.1045
  viscosity: 2.183 ± 0.047 mPa·s
  mass density: 790.86 ± 0.8 kg/m3
298.15 K, x1 = 0.2008
  viscosity: 1.919 ± 0.041 mPa·s
  mass density: 780.62 ± 0.79 kg/m3
298.15 K, x1 = 0.3002
  viscosity: 1.722 ± 0.037 mPa·s
  mass density: 772.45 ± 0.78 kg/m3
298.15 K, x1 = 0.3985
  viscosity: 1.588 ± 0.034 mPa·s
  mass density: 765.97 ± 0.78 kg/m3
298.15 K, x1 = 0.4995
  viscosity: 1.477 ± 0.031 mPa·s
  mass density: 760.49 ± 0.77 kg/m3
298.15 K, x1 = 0.5978
  viscosity: 1.414 ± 0.03 mPa·s
  mass density: 756.17 ± 0.77 kg/m3
298.15 K, x1 = 0.7012
  viscosity: 1.359 ± 0.029 mPa·s
  mass density: 752.24 ± 0.76 kg/m3
298.15 K, x1 = 0.7671
  viscosity: 1.345 ± 0.029 mPa·s
  mass density: 750.38 ± 0.76 kg/m3
298.15 K, x1 = 0.8773
  viscosity: 1.331 ± 0.028 mPa·s
  mass density: 747.52 ± 0.76 kg/m3
298.15 K, x1 = 1
  viscosity: 1.366 ± 0.029 mPa·s
  mass density: 745.22 ± 0.76 kg/m3
303.15 K, x1 = 0.1045
  viscosity: 1.934 ± 0.041 mPa·s
  mass density: 787.01 ± 0.8 kg/m3
303.15 K, x1 = 0.2008
  viscosity: 1.709 ± 0.036 mPa·s
  mass density: 776.76 ± 0.79 kg/m3
303.15 K, x1 = 0.3002
  viscosity: 1.543 ± 0.033 mPa·s
  mass density: 768.59 ± 0.78 kg/m3
303.15 K, x1 = 0.3985
  viscosity: 1.43 ± 0.03 mPa·s
  mass density: 762.12 ± 0.77 kg/m3
303.15 K, x1 = 0.4995
  viscosity: 1.338 ± 0.028 mPa·s
  mass density: 756.67 ± 0.77 kg/m3
303.15 K, x1 = 0.5978
  viscosity: 1.287 ± 0.027 mPa·s
  mass density: 752.37 ± 0.76 kg/m3
303.15 K, x1 = 0.7012
  viscosity: 1.242 ± 0.026 mPa·s
  mass density: 748.47 ± 0.76 kg/m3
303.15 K, x1 = 0.7671
  viscosity: 1.231 ± 0.026 mPa·s
  mass density: 746.62 ± 0.76 kg/m3
303.15 K, x1 = 0.8773
  viscosity: 1.22 ± 0.026 mPa·s
  mass density: 743.81 ± 0.75 kg/m3
303.15 K, x1 = 1
  viscosity: 1.257 ± 0.027 mPa·s
  mass density: 741.59 ± 0.75 kg/m3
308.15 K, x1 = 0.1045
  viscosity: 1.721 ± 0.037 mPa·s
  mass density: 783.13 ± 0.79 kg/m3
308.15 K, x1 = 0.2008
  viscosity: 1.529 ± 0.033 mPa·s
  mass density: 772.86 ± 0.78 kg/m3
308.15 K, x1 = 0.3002
  viscosity: 1.388 ± 0.03 mPa·s
  mass density: 764.7 ± 0.78 kg/m3
308.15 K, x1 = 0.3985
  viscosity: 1.295 ± 0.028 mPa·s
  mass density: 758.24 ± 0.77 kg/m3
308.15 K, x1 = 0.4995
  viscosity: 1.218 ± 0.026 mPa·s
  mass density: 752.82 ± 0.76 kg/m3
308.15 K, x1 = 0.5978
  viscosity: 1.177 ± 0.025 mPa·s
  mass density: 748.54 ± 0.76 kg/m3
308.15 K, x1 = 0.7012
  viscosity: 1.141 ± 0.024 mPa·s
  mass density: 744.67 ± 0.76 kg/m3
308.15 K, x1 = 0.7671
  viscosity: 1.132 ± 0.024 mPa·s
  mass density: 742.85 ± 0.75 kg/m3
308.15 K, x1 = 0.8773
  viscosity: 1.124 ± 0.024 mPa·s
  mass density: 740.07 ± 0.75 kg/m3
308.15 K, x1 = 1
  viscosity: 1.154 ± 0.025 mPa·s
  mass density: 737.95 ± 0.75 kg/m3
313.15 K, x1 = 0.1045
  viscosity: 1.537 ± 0.033 mPa·s
313.15 K, x1 = 0.2008
  viscosity: 1.373 ± 0.029 mPa·s
313.15 K, x1 = 0.3002
  viscosity: 1.254 ± 0.027 mPa·s
313.15 K, x1 = 0.3985
  viscosity: 1.177 ± 0.025 mPa·s
313.15 K, x1 = 0.4995
  viscosity: 1.114 ± 0.024 mPa·s
313.15 K, x1 = 0.5978
  viscosity: 1.082 ± 0.023 mPa·s
313.15 K, x1 = 0.7012
  viscosity: 1.051 ± 0.022 mPa·s
313.15 K, x1 = 0.7671
  viscosity: 1.045 ± 0.022 mPa·s
313.15 K, x1 = 0.8773
  viscosity: 1.04 ± 0.022 mPa·s
313.15 K, x1 = 1
  viscosity: 1.076 ± 0.023 mPa·s
